The source of these data is US12590953B2, “Methods for screening cereblon modifying compounds” (CELGENE CORPORATION, priority 2018, dated 2026).

The test system of the assay is ZFP91 cereblon-binding zinc finger (a.a. 395-423) / rabbit cereblon. Description: In vitro ubiquitination of ZFP91 zinc finger by rabbit cereblon. Type of assay: biochemical. The note with it: with thalidomide. On the procedure:
Glycine degron-containing zinc fingers are highlighted with stars. […] Ubiquitination reactions were separated by SDS-PAGE followed by anti-MBP western blot. […] Results in panels b and c are representative of 3 independent experiments.
Full length human cereblon, full length mouse cereblon, and full length rabbit cereblon were co-expressed with full length human DDB1 in SF9 insect cells in ESF921 medium in the presence of 50 uM zinc acetate. Cells were resuspended in buffer containing 50 mM Tris-HCl pH 7.5, 500 mM NaCl, 10 mM imidazole, 10% glycerol, 2 mM TCEP, 1× Protease Inhibitor Cocktail (San Diego Bioscience), and 40,000 U Benzonase (Novagen), and sonicated for 30 s. Lysate was clarified by high speed spin at 30,000 rpm for 30 minutes, and clarified lysate was incubated with Ni-NTA affinity resin (Qiagen) for 1 hour. Complex was eluted with buffer containing 500 mM imidazole, and the ZZ-domain-6×His tag removed by thrombin cleavage (Enzyme Research) overnight, combined with dialysis in 10 mM imidazole buffer. Cleaved eluate was incubated with Ni-NTA affinity resin (Qiagen), and the flow-through diluted to 200 mM NaCl for further purification over a Sephacryl S-400 16/60 column (GE Healthcare) in buffer containing 10 mM HEPES pH 7.0, 240 mM NaCl, and 3 mM TECP. […]

In the case of `O=C1CCC(N2C(=O)c3ccccc3C2=O)C(=O)N1` (stereo not shown) [thalidomide], the “Ubiquitination of ZFP91 zinc finger (a.a. 395-423) by rabbit cereblon” value was “efficiently ubiquitinated by human and rabbit cereblon”.
